Test results: US20240209022A1, “NOVEL PEPTIDE HAVING ANTI-INFLAMMATORY AND TISSUE REGENERATIVE ACTIONS” (KOREA RESEARCH INSTITUTE OF BIOSCIENCE AND BIOTECHNOLOGY, priority 2020, published 2024)

Assays:
[1] = system: collagen induced arthritis (CIA) model; assay: Collagen induced arthritis (CIA) rheumatoid arthritis model; format: in vivo, DBA/1J mice; settings: vs PBS buffer group; for thickness of the ankle joint: at the end of the experiment
[2] = system: depression and anxiety model; assay: LPS-induced depression and anxiety model (TST, FST, EPM); format: in vivo, C57BL/6J mice; settings: vs PBS buffer group; for immobility time in forced swim test / immobility time in tail suspension test: oral, LPS-induced; for Ifnγ mRNA expression in brain tissue (hippocampus) / Il-10 mRNA expression in brain tissue (hippocampus): RT-qPCR
Method: By Daehan Biolink, 7-week-old male C57BL/6J mice weighing 20-22 g were supplied, and the animals were sufficiently supplied with solid feed and water until the day of the experiment, acclimatized for 1 week while maintaining an environment with a temperature of 22° C. 2° C., a humidity of 55%±15%, and a 12-hour light/dark cycle, and then used in the experiment. From 3 days before inducing depression and anxiety, the peptide was dissolved in PBS buffer and orally administered to the mice by 150 μL per animal at the same time once a day. Amuc_1409 or PEP001, PEP002, PEP003, PEP004, or PEP005 was dissolved in PBS buffer at a concentration of 6.7 μM and then used, and novel tetrapeptides PEP006, PEP007, PEP008, PEP009, and PEP010 and novel tripeptides PEP011, PEP012, and PEP013 were each dissolved in PBS buffer at a concentration of 0.2 μg/150 μL and then used. On the 3rd day of peptide administration, lipopolysaccharide (LPS) dissolved in PBS buffer was intraperitoneally injected at a concentration of 0.8 mg/kg to induce depression and anxiety. Tail suspension test (TST) and forced swim test (FST) were conducted to analyze the effect on depression. As the TST, a tail suspension device was installed in an open white acrylic box of 20 cm×25 cm×30 cm size, and the mouse was suspended upside down at a height where the mouse's tail would not touch the floor, and then the time for which the mouse maintained immobility while observing in the same environment was measured for 6 minutes. […] Water at around 25° C. was filled in a transparent acrylic cylinder (45 cm depth×18 cm diameter) up to 30 cm from the bottom, the mouse was exposed to water, and the time for which the mouse maintained immobility while swimming was measured for 6 minutes. […] An elevated plus-maze (EPM) test was performed to analyze the effect on anxiety level. The EPM device consists of two open arms (50 cm×10 cm) and two […] (50 cm×10 cm) at a height of 50 cm from the floor, and the arms are connected by a central area of 10 cm×10 cm. At the start of the experiment, the mouse was placed in the center of the maze and the time for which the mouse stayed in the open arm was measured for a total of 5 minutes using a video camera, and the percentage of time spent in the open arm was calculated and recorded [(time spent in open arm/time spent in open and closed arms)×100]. In addition, in order to examine the anti-inflammatory activity according to the administration of Amuc_1409 and PEP001, PEP002, PEP003, PEP004, and PEP005 in an animal model of depression and anxiety, the expression of Ifnγ and Il-10 mRNA, which are major inflammatory genes related to depression, in brain tissue (hippocampus) was examined.

[3] = system: non-alcoholic hepatitis model; assay: High-fat diet-induced non-alcoholic steatohepatitis model, liver gene expression; format: in vivo, C57BL/6J mice; settings: RT-qPCR; vs PBS buffer group
Method: A non-alcoholic hepatitis model was induced by feeding a high-fat diet to 8-week-old SPF male C57BL/6J mice. The experiment for groups administered with Amuc_1409 and PEP001 to PEP005 was performed as follows. Mice fed a high-fat diet for 45 weeks were fed a high-fat diet for an additional 3 weeks, and Amuc_1409 was dissolved in PBS buffer at a concentration of 2.4 μM and then orally administered to the mice by 150 μL per animal at the same time once a day until the end of the experiment, or mice fed a high-fat diet for 8 weeks were fed a high-fat diet for an additional 3 weeks, and PEP001, PEP002, PEP003, PEP004, or PEP005 was dissolved in PBS buffer at a concentration of 2.4 μM and then orally administered to the mice by 150 μL per animal at the same time once a day until the end of the experiment. To the control group, PBS buffer was orally administered in the same manner. The experiment for groups administered with PEP006 to PEP013 was performed as follows. The non-alcoholic hepatitis model was induced by ad libitum feeding of a high-fat diet for 32, 50, or 53 weeks. Mice fed a high-fat diet for 50 weeks were fed a high-fat diet for an additional 3 weeks, and a novel tetrapeptide PEP006, PEP007, PEP008, PEP009, or PEP010 was dissolved in PBS buffer at a concentration of 0.2 μg/150 μL and then orally administered to the mice by 150 μL per animal at the same time until the end of the test, and mice fed a high-fat diet for 53 weeks were fed a high-fat diet for an additional 3 weeks, and a novel […] PEP011, PEP012, or PEP013 was dissolved in PBS buffer at a concentration of 0.2 μg/150 μL and then orally administered to the mice by 150 μL per animal at the same time until the end of the test. To the control group, PBS buffer was orally administered in the same manner. At the end of the experiment, a part of the liver harvested was homogenized with Trizol to extract RNA. Reverse transcriptase was added to the obtained RNA and reacted to synthesize cDNA, and SYBR Green and primers were added to perform quantitative real-time PCR (RT-qPCR), and then the expression levels of genes such as Tnfα, Il-1β, Il-10, and Il-1rn were quantified.

| Substance | thickness of the ankle joint [1] | arthritis index (clinical score by date) [1] | swelling of the hind paws by macrophotography [1] | immobility time in forced swim test [2] | immobility time in tail suspension test [2] | Ifnγ gene expression in liver tissue [3] | Il-1p gene expression in liver tissue [3] | Ifnγ mRNA expression in brain tissue (hippocampus) [2] | Il-10 mRNA expression in brain tissue (hippocampus) [2] | time spent in the open arm, elevated plus-maze test [2] | 11-10, which is an anti-inflammatory index (liver gene expression) [3] | Il-6 gene expression in liver tissue [3] | Tnfα gene expression in liver tissue [3] |
| --- | --- | --- | --- | --- | --- | --- | --- | --- | --- | --- | --- | --- | --- |
| AIS [PEP013] | tended to decrease | tended to decrease | relieved overall | tended to decrease | decreased | tended to decrease | significantly decreased | – | – | – | – | – | – |
| AVSSI (PEP002) | significantly decreased | significantly decreased from day 26 after the first CII injection to the experiment end day | reduced overall | significantly decreased | significantly decreased | – | significantly decreased | significantly decreased | significantly increased | increased | tended to increase close to a significant level | – | – |
| SGAY (PEP009) | significantly decreased | significantly decreased from day 30 after the first CII injection to the experiment end day | remarkably improved | tended to decrease | decreased | tended to decrease | significantly decreased | – | – | – | – | tended to decrease | tended to decrease |
| KGAY (PEP003) | significantly decreased | significantly decreased from day 26 after the first CII injection to the experiment end day | reduced overall | significantly decreased | significantly decreased | – | significantly decreased | significantly decreased | significantly increased | increased | significantly increased | – | significantly decreased |
| GAY [PEP005] | significantly decreased | significantly decreased from day 28 after the first CII injection to the experiment end day | reduced overall | significantly decreased | significantly decreased | – | significantly decreased | significantly decreased | significantly increased | increased | significantly increased | – | significantly decreased |
| AQS [PEP011] | significantly decreased | significantly decreased from day 30 after the first CII injection to the experiment end day | relieved overall | tended to decrease | decreased | tended to decrease | tended to decrease | – | – | – | – | – | – |
| VGAY (PEP010) | significantly decreased | significantly decreased from day 30 after the first CII injection to the experiment end day | remarkably improved | tended to decrease | decreased | tended to decrease | significantly decreased | – | – | – | – | tended to decrease | tended to decrease |
